The source of these data is patent US5547870A, “Oxalate decarboxylate” (Zeneca Limited, priority 1994, dated 1996).

As a reminder, the Vmax is the top rate of the reaction or transport when substrate is in excess. By Ki is commonly meant the dissociation constant of the complex between target and ligand, obtained from inhibition or displacement. By Km is commonly meant the concentration of substrate that gives half-maximal velocity.

Counter-ions that a name gives are not always drawn.

The target of data set [1] is T1, Collybia velutipes oxalate decarboxylase, purified native enzyme, peak A (eluting at pH 3.3 on chromatofocusing) (Flammulina velutipes, UniProt Q9UVK4).
T1 construct: chromatofocusing peak A (pH 3.3); about 55 kDa when deglycosylated
T1 sequence (Q9UVK4 21-447): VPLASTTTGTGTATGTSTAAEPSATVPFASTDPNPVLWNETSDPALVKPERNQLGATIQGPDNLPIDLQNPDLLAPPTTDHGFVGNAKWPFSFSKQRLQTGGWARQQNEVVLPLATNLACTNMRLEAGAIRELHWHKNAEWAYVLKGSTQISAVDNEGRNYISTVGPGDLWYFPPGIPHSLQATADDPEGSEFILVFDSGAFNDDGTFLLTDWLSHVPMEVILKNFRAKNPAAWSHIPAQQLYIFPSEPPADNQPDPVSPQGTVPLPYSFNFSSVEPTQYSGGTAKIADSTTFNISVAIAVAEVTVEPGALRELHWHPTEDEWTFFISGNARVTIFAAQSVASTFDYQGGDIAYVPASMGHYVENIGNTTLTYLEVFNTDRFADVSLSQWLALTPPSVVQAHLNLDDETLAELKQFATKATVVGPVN
Description: Oxalate decarboxylase assay: liberation of 14CO2 from [14C]-oxalic acid; Lineweaver-Burk plots. The class given is biochemical, Collybia velutipes (strain S. A.T.C.C 13547). The procedure:
(§1) The oxalate decarboxylase activity was also determined by measuring the liberation of ^14 CO2 from [^14 C]-oxalic acid (Amersham, 4.1 mCi/mmol). The enzyme assay was carried out in small glass vails which contained 1 ml of the following reaction mixture: 0.2M potassium citrate, pH 3.0, 0.005M potassium oxalate, pH 3.0, 5.6 nmoles (0.0227 μCi) of (^14 C)-oxalic acid and 0.2 ml of enzyme solution. The tubes were preincubated for 5 min before the addition of enzyme. The tubes were sealed with rubber-stoppers and incubated at 37° C. for 30 min in a shaking water bath. The reaction was terminated by injection of 0.2 ml of 50% v/v trichloroacetic acid through the rubber caps and the tubes were shaken for additional 60 min to trap all the ^14 CO2 evolved in the 0.2 ml methylbenzethonium hydroxide(Sigma) placed in a plastic vial inside the glass tube. The plastic wells were withdrawn and the contents transferred to 5 ml of toluene based scintillation fluid and radioactivity determined in a liquid scintillation counter. Blanks tubes were set up in which the 0.2 ml of 50% TCA was added before the enzyme or the enzyme was omitted. In kinetic experiments, the values were corrected for the radioactivity obtained from the boiled denatured enzyme.
One unit was defined as the amount of enzyme releasing 1 μmole of ^14 CO2 per min at 37° C. under standard assay conditions. The overall assay efficiency was usually between 60-70%. Protein was determined by Lowry microassay method (Peterson, Anal. Biochem. 83:346 (1977)). Vmax and Km were determined by Lineweaver-Burk plot (Lineweaver and Burk, J. Am. Chem. Soc. 56:658-666 (1934)).

Substrate in data set [2]: O=C(O)C(=O)O
The description is as above. It is filed as biochemical, Collybia velutipes (strain S. A.T.C.C 13547). The note with it: other: peak A enzyme, Lineweaver-Burk plot, 0.2M potassium citrate pH 3.0, 37° C. The procedure:
as §1, with “The reaction was terminated by injection of 0.2 ml of 50% v/v trichloroacetic acid through the rubber caps and the tubes were shaken for additional 60 min to trap all the ^14 CO2 evolved in the 0.2 ml methylbenzethonium hydroxide(Sigma) placed in a plastic vial inside the glass tube.” left out, “Blanks tubes were set up in which the 0.2 ml of 50% TCA was added before the enzyme or the enzyme was omitted.” left out
One unit was defined as the amount of enzyme releasing 1 μmole of ^14 CO2 per min at 37° C. under standard assay conditions. […] Protein was determined by Lowry microassay method (Peterson, Anal. Biochem. 83:346 (1977)). Vmax and Km were determined by Lineweaver-Burk plot (Lineweaver and Burk, J. Am. Chem. Soc. 56:658-666 (1934)).

Take `O=C(O)CI` [iodoacetate]: the activity at 50000 µM in data set [1] (read-out: activity retained in the presence of sulfhydryl group reagent) was 95%.
With `O=C(O)C(=O)O` [potassium oxalate], the Vmax in data set [1] (peak A enzyme, potassium oxalate as substrate, Lineweaver-Burk plot, pH 3.0, 37° C.) was 166 µmol/min/mg.
For the molecule `O=P(O)(O)O` [phosphate ions, phosphate], the Ki in data set [1] (competitive inhibition, 90 mM PO4^2- added to the reaction, read-out: Ki (phosphate ions)) was 9 mM.
As to `O=S(=O)(O)c1cc[c]([Hg][Cl])cc1` [p-chloromercuribenzenesulfonic acid], in data set [1] (50 mM reagent), the “activity retained in the presence of sulfhydryl group reagent” value came out at 95%.

B1: Collybia velutipes oxalate decarboxylase, purified native enzyme, peak A (eluting at pH 3.3 on chromatofocusing) (Flammulina velutipes) (protein)
chain: VPLASTTTGTGTATGTSTAAEPSATVPFASTDPNPVLWNETSDPALVKPERNQLGATIQGPDNLPIDLQNPDLLAPPTTDHGFVGNAKWPFSFSKQRLQTGGWARQQNEVVLPLATNLACTNMRLEAGAIRELHWHKNAEWAYVLKGSTQISAVDNEGRNYISTVGPGDLWYFPPGIPHSLQATADDPEGSEFILVFDSGAFNDDGTFLLTDWLSHVPMEVILKNFRAKNPAAWSHIPAQQLYIFPSEPPADNQPDPVSPQGTVPLPYSFNFSSVEPTQYSGGTAKIADSTTFNISVAIAVAEVTVEPGALRELHWHPTEDEWTFFISGNARVTIFAAQSVASTFDYQGGDIAYVPASMGHYVENIGNTTLTYLEVFNTDRFADVSLSQWLALTPPSVVQAHLNLDDETLAELKQFATKATVVGPVN
notes: chromatofocusing peak A (pH 3.3); about 55 kDa when deglycosylated
As to B1, in data set [2], the Km is given as 4.5 mM and the Vmax came to 166 µmol/min/mg.
